Reference: ChEMBL document CHEMBL2380247, “Synthesis and biological evaluation of novel aliphatic amido-quaternary ammonium salts for anticancer chemotherapy: part II” (2013)

What was measured:
Assay type in all cases: functional
NUGC-3 [1] = assay: Antiproliferative activity against human NUGC3 cells at 10 uM by SRB assay
NCI-H23 [2] = assay: Antiproliferative activity against human NCI-H23 cells by SRB assay
NCI-H23 [3] = assay: Antiproliferative activity against human NCI-H23 cells at 10 uM by SRB assay
ACHN [4] = assay: Antiproliferative activity against human ACHN cells at 1 uM by SRB assay
ACHN [5] = assay: Antiproliferative activity against human ACHN cells at 10 uM by SRB assay
HCT-15 [6] = assay: Antiproliferative activity against human HCT15 cells at 0.1 uM by SRB assay
HCT-15 [7] = assay: Antiproliferative activity against human HCT15 cells by SRB assay
PC-3 [8] = assay: Antiproliferative activity against human PC3 cells at 0.3 uM by SRB assay
MDA-MB-231 [9] = assay: Antiproliferative activity against human MDA-MB-231 cells at 1 uM by SRB assay
ACHN [10] = assay: Antiproliferative activity against human ACHN cells by SRB assay
PC-3 [11] = assay: Antiproliferative activity against human PC3 cells at 10 uM by SRB assay
MDA-MB-231 [12] = assay: Antiproliferative activity against human MDA-MB-231 cells by SRB assay
MDA-MB-231 [13] = assay: Antiproliferative activity against human MDA-MB-231 cells at 3 uM by SRB assay
MDA-MB-231 [14] = assay: Antiproliferative activity against human MDA-MB-231 cells at 0.1 uM by SRB assay
HCT-15 [15] = assay: Antiproliferative activity against human HCT15 cells at 10 uM by SRB assay
NUGC-3 [16] = assay: Antiproliferative activity against human NUGC3 cells at 3 uM by SRB assay
PC-3 [17] = assay: Antiproliferative activity against human PC3 cells at 1 uM by SRB assay
NCI-H23 [18] = assay: Antiproliferative activity against human NCI-H23 cells at 3 uM by SRB assay
MDA-MB-231 [19] = assay: Antiproliferative activity against human MDA-MB-231 cells at 10 uM by SRB assay
PC-3 [20] = assay: Antiproliferative activity against human PC3 cells at 3 uM by SRB assay
MDA-MB-231 [21] = assay: Antiproliferative activity against human MDA-MB-231 cells at 0.3 uM by SRB assay
PC-3 [22] = assay: Antiproliferative activity against human PC3 cells at 0.1 uM by SRB assay
NUGC-3 [23] = assay: Antiproliferative activity against human NUGC3 cells at 1 uM by SRB assay
HCT-15 [24] = assay: Antiproliferative activity against human HCT15 cells at 0.3 uM by SRB assay
PC-3 [25] = assay: Antiproliferative activity against human PC3 cells by SRB assay
ACHN [26] = assay: Antiproliferative activity against human ACHN cells at 0.1 uM by SRB assay
NCI-H23 [27] = assay: Antiproliferative activity against human NCI-H23 cells at 0.1 uM by SRB assay
NCI-H23 [28] = assay: Antiproliferative activity against human NCI-H23 cells at 1 uM by SRB assay
ACHN [29] = assay: Antiproliferative activity against human ACHN cells at 0.3 uM by SRB assay
NCI-H23 [30] = assay: Antiproliferative activity against human NCI-H23 cells at 0.3 uM by SRB assay
ACHN [31] = assay: Antiproliferative activity against human ACHN cells at 3 uM by SRB assay
HCT-15 [32] = assay: Antiproliferative activity against human HCT15 cells at 3 uM by SRB assay
NUGC-3 [33] = assay: Antiproliferative activity against human NUGC3 cells at 0.1 uM by SRB assay
NUGC-3 [34] = assay: Antiproliferative activity against human NUGC3 cells at 0.3 uM by SRB assay
NUGC-3 [35] = assay: Antiproliferative activity against human NUGC3 cells by SRB assay
HCT-15 [36] = assay: Antiproliferative activity against human HCT15 cells at 1 uM by SRB assay

| SMILES | growth, % of control at 10 µM (NUGC-3 [1]) | GI50 (NCI-H23 [2]) | growth, % of control at 10 µM (NCI-H23 [3]) | growth, % of control at 1 µM (ACHN [4]) | growth, % of control at 10 µM (ACHN [5]) | growth, % of control at 0.1 µM (HCT-15 [6]) | GI50 (HCT-15 [7]) | growth, % of control at 0.3 µM (PC-3 [8]) | growth, % of control at 1 µM (MDA-MB-231 [9]) | GI50 (ACHN [10]) | growth, % of control at 10 µM (PC-3 [11]) | GI50 (MDA-MB-231 [12]) | growth, % of control at 3 µM (MDA-MB-231 [13]) | growth, % of control at 0.1 µM (MDA-MB-231 [14]) | growth, % of control at 10 µM (HCT-15 [15]) | growth, % of control at 3 µM (NUGC-3 [16]) | growth, % of control at 1 µM (PC-3 [17]) | growth, % of control at 3 µM (NCI-H23 [18]) | growth, % of control at 10 µM (MDA-MB-231 [19]) | growth, % of control at 3 µM (PC-3 [20]) | other results |
| --- | --- | --- | --- | --- | --- | --- | --- | --- | --- | --- | --- | --- | --- | --- | --- | --- | --- | --- | --- | --- | --- |
| CCCCCCCCCCCCCCCC(=O)N(C)CCC[N+](C)(C)CC | -37.1% | 780 nM | -15.5% | 62.3% | 15.7% | 95.6% | 3420 nM | 101% | 73.3% | 1020 nM | -17.2% | 1380 nM | 47.2% | 98.7% | 40.3% | -18.5% | 44.6% | 31.2% | 19% | 1.57% | growth, % of control at 0.3 µM (MDA-MB-231 [21]): 97.7%; growth, % of control at 0.1 µM (PC-3 [22]): 105%; growth, % of control at 1 µM (NUGC-3 [23]): 7.32%; growth, % of control at 0.3 µM (HCT-15 [24]): 98.3%; GI50 (PC-3 [25]): 490 nM; growth, % of control at 0.1 µM (ACHN [26]): 95.1%; growth, % of control at 0.1 µM (NCI-H23 [27]): 103%; growth, % of control at 1 µM (NCI-H23 [28]): 62.9%; growth, % of control at 0.3 µM (ACHN [29]): 95%; growth, % of control at 0.3 µM (NCI-H23 [30]): 100%; growth, % of control at 3 µM (ACHN [31]): 41.5%; growth, % of control at 3 µM (HCT-15 [32]): 69.2%; growth, % of control at 0.1 µM (NUGC-3 [33]): 101%; growth, % of control at 0.3 µM (NUGC-3 [34]): 77.8%; GI50 (NUGC-3 [35]): 220 nM; growth, % of control at 1 µM (HCT-15 [36]): 84.4% |
| CCCCCCCCCCCCCCCC(=O)N(C)CC[N+](C)(C)CC | -11.1% | 580 nM | -9.2% | 46.3% | -14.5% | 93.4% | 1010 nM | 84% | 59.1% | 580 nM | -18.9% | 660 nM | 21.9% | 102% | 17.8% | 9.7% | 10.8% | 30.6% | -4.7% | -14.5% | growth, % of control at 0.3 µM (MDA-MB-231 [21]): 101%; growth, % of control at 0.1 µM (PC-3 [22]): 90%; growth, % of control at 1 µM (NUGC-3 [23]): 38.2%; growth, % of control at 0.3 µM (HCT-15 [24]): 85.9%; GI50 (PC-3 [25]): 250 nM; growth, % of control at 0.1 µM (ACHN [26]): 110%; growth, % of control at 0.1 µM (NCI-H23 [27]): 91.2%; growth, % of control at 1 µM (NCI-H23 [28]): 53.8%; growth, % of control at 0.3 µM (ACHN [29]): 95%; growth, % of control at 0.3 µM (NCI-H23 [30]): 84.4%; growth, % of control at 3 µM (ACHN [31]): 10.2%; growth, % of control at 3 µM (HCT-15 [32]): 37.8%; growth, % of control at 0.1 µM (NUGC-3 [33]): 99.1%; growth, % of control at 0.3 µM (NUGC-3 [34]): 91.8%; GI50 (NUGC-3 [35]): 410 nM; growth, % of control at 1 µM (HCT-15 [36]): 70.5% |
| CCCCCCCCCCCCCCCC(=O)N(C)CC[N+](CC)(CC)Cc1ccccc1 | -9.3% | 1220 nM | 6.5% | 52.3% | 1.6% | 100% | > 10000 nM | 80.4% | 82.1% | 600 nM | -13.9% | 1130 nM | 33.2% | 105% | 71.1% | 1.3% | 25.8% | 39.7% | -4.4% | 1.4% | growth, % of control at 0.3 µM (MDA-MB-231 [21]): 96.5%; growth, % of control at 0.1 µM (PC-3 [22]): 86.6%; growth, % of control at 1 µM (NUGC-3 [23]): 31.4%; growth, % of control at 0.3 µM (HCT-15 [24]): 101%; GI50 (PC-3 [25]): 310 nM; growth, % of control at 0.1 µM (ACHN [26]): 83.4%; growth, % of control at 0.1 µM (NCI-H23 [27]): 113%; growth, % of control at 1 µM (NCI-H23 [28]): 75.4%; growth, % of control at 0.3 µM (ACHN [29]): 86.3%; growth, % of control at 0.3 µM (NCI-H23 [30]): 112%; growth, % of control at 3 µM (ACHN [31]): 28%; growth, % of control at 3 µM (HCT-15 [32]): 92.8%; growth, % of control at 0.1 µM (NUGC-3 [33]): 92.7%; growth, % of control at 0.3 µM (NUGC-3 [34]): 84.8%; GI50 (NUGC-3 [35]): 360 nM; growth, % of control at 1 µM (HCT-15 [36]): 99.4% |
